The values that follow come from ChEMBL document CHEMBL5050844 (2019).

Assay [1] is described as follows: Induction of anti-CD3/CD28 antibodies-stimulated human T cell activation at 1 uM assessed fold increase in IL-2 secretion measured by ELISA assay. The class given is functional, T cell line. In general terms: In an ELISA, binding on a coated surface is turned into a signal by an enzyme label.
Assay [2] can be described thus: Induction of anti-CD3 antibodies-stimulated human CD8+ T cell activation at 10 uM assessed fold increase in CD69 expression measured by flow cytometry analysis. Further: reference of the scale not given here. It is filed as functional, T cell line. For orientation: In flow cytometry, cells or beads pass a laser one at a time.
The nature of assay [3]: Induction of anti-CD3 antibodies-stimulated human T cell activation at 1.11 uM assessed fold increase in GM-CSF secretion measured by ELISA assay. Further: reference of the scale not given here. It is filed as functional, T cell line.
For assay [4], the target named is T1, E3 ubiquitin-protein ligase CBL-B (Homo sapiens, UniProt Q13191). As to the kind of experiment: Binding affinity towards N-terminal biotinylated Avi-tagged human CBL-B (36 to 427 residues) measured by surface plasmon resonance assay.
Assay [5] is described as follows: Induction of anti-CD3/CD28 antibodies-stimulated human anergic T cell activation at 10 uM assessed fold increase in IFN-gamma secretion measured by ELISA assay. It is filed as functional, T cell line.
The nature of assay [6]: Induction of anti-CD3 antibodies-stimulated human T cell activation at 10 uM assessed fold increase in IFN-gamma secretion measured by ELISA assay. Further: reference of the scale not given here. The class given is functional, T cell line.
The nature of assay [7]: Induction of activation of human CD56+ CD3- NK cells co-cultured with human K562 cells in 1:1 ratio and assessed as increase in IFN-gamma secretion at 0.625 uM measured by ELISA assay. The class given is functional, Natural killer cell.
The nature of assay [8]: Induction of anti-CD3/CD28 antibodies-stimulated human CD8+ T cell activation at 1.11 uM assessed fold increase in CD69 expression measured by flow cytometry analysis. The class given is functional, T cell line.
The nature of assay [9]: Induction of anti-CD3/CD28 antibodies-stimulated human T cell activation at 0.3 uM assessed fold increase in CD25 expression measured by ELISA assay. The class given is functional, T cell line.
Assay [10] in a line: Induction of anti-CD3 antibodies-stimulated human CD8+ T cell activation at 1.11 uM assessed fold increase in CD69 expression measured by flow cytometry analysis. Further: reference of the scale not given here. It is filed as functional, T cell line.
Assay [11] is described as follows: Induction of anti-CD3/CD28 antibodies-stimulated human CD4+ T cell activation at 1.11 uM assessed fold increase in cell proliferation measured by flow cytometry analysis. The class given is functional, T cell line.
Assay [12] can be described thus: Induction of anti-CD3 antibodies-stimulated human T cell activation at 8 uM assessed fold increase in CD25 expression measured by ELISA assay. Further: reference of the scale not given here. The class given is functional, T cell line.
Assay [13] is described as follows: Induction of anti-CD3/CD28 antibodies-stimulated human CD4+ T cell activation at 10 uM assessed fold increase in CD69 expression measured by flow cytometry analysis. It is filed as functional, T cell line.
Assay [14] in a line: Induction of anti-CD3 antibodies-stimulated human exhausted CD8+ T cell activation assessed fold increase in CTLA4 expression measured by flow cytometry analysis. Further: reference of the scale not given here. It is filed as functional, T cell line.
Assay [15] in a line: Induction of anti-CD3 antibodies-stimulated human exhausted T cell activation assessed fold increase in IL-2 secretion measured by ELISA assay. Further: reference of the scale not given here. It is filed as functional, T cell line.
Assay [16] is described as follows: Induction of anti-CD3 antibodies-stimulated human T cell activation at 1.11 uM assessed fold increase in TNF-alpha secretion measured by ELISA assay. Further: reference of the scale not given here. The class given is functional, T cell line.
For assay [17], the target named is T1, E3 ubiquitin-protein ligase CBL-B. In words: Inhibition of N-terminal Avi-tagged human CBL-B (36 to 427 residues) incubated with 60 nM Src kinase for 1.5 hrs followed by incubation with fluorescently labeled UbcH5B-Ub for 1 hr and measured by TR-FRET assay. The class given is single protein.

T1 sequence (Q13191 whole entry, the tested form may be a part): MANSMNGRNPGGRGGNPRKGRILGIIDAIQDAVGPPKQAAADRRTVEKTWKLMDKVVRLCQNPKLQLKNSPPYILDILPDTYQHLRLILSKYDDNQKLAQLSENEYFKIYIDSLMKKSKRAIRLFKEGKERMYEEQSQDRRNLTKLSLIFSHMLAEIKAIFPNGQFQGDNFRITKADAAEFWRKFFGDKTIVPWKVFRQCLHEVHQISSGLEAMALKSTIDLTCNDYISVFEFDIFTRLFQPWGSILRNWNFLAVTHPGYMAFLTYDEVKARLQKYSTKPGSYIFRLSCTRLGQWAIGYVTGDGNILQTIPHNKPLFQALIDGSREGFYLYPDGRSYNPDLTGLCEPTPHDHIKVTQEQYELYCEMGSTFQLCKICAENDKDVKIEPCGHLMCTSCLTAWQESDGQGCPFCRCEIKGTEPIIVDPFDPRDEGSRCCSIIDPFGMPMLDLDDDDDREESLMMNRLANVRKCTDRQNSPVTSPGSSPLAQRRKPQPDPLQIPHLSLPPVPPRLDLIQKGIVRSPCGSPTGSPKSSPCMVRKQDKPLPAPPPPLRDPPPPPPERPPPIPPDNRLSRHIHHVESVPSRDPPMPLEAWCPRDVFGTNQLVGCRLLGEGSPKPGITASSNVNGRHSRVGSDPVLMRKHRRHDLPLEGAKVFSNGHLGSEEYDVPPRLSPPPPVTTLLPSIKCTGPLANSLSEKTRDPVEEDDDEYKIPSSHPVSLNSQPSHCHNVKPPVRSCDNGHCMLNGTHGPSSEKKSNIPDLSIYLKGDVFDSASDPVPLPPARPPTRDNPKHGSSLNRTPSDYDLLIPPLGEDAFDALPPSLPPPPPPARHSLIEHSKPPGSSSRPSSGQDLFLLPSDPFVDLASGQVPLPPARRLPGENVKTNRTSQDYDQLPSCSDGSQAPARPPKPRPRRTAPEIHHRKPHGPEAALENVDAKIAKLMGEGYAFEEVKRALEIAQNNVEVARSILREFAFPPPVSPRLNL

By Kd is commonly meant the constant that tells how readily two partners part at equilibrium. A high value points to a looser complex. By IC50 is commonly meant the concentration that gives 50% inhibition. A lower IC50 goes with higher potency. For the molecule `Cn1cnnc1CC1(c2cccc(NC(=O)c3nc4c(C(F)(F)F)cccc4[nH]3)c2)COC1`, the “fold change (FC)” value is 5 in [1]; 1.401 in assay [2]; “<=1.5” in assay [3]; >4.01 in assay [5]; 2.01 in assay [6]; 2.01 in assay [7]. Besides, the “fold change (FC)” value in assay [8] is recorded as 1.201; in assay [9], 1.31; in assay [10], 1.201; in [11] it was >4; in assay [12], “>=1.001”; in [13] it was >1.601. The “fold change (FC)” value in assay [14] was >1.61; in assay [15] it was >3.01; in [16] it was 1.51. The Kd in assay [4] is < 100 nM. In [17], the 50% inhibitory concentration (IC50) was < 100 nM.

On to `Cn1cnnc1CC1(c2cccc(N3Cc4c(cc(CN5CC[C@H](C#N)C5)cc4C(F)(F)F)C3=O)c2)COC1`, for which the “fold change (FC)” value in [1] is listed as “>=7.5”; in assay [2], 1.201; in [3], 2.01; in assay [5], 2.51; in assay [6], 3.01; in [7] it was 2.01. Also, the “fold change (FC)” value in assay [8] was 1.201; in [9], 1.31; in assay [10], “<=1.2”; in [11], >4; in [12], “>=1.001”; in [13], 1.401. The “fold change (FC)” value in assay [14] is >1.61; in [15] it was “<=2.5”; in assay [16], “<=1.5”. Also, the IC50 in [17] is < 100 nM.

Turning to `C[C@H](Cc1nncn1C)c1cccc(N2Cc3c(cc(CN4CC(C)(O)C4)cc3C(F)(F)F)C2=O)c1`, the “fold change (FC)” value in assay [1] is reported as “>=7.5”; in assay [2] it was 1.401; in assay [3], 2.01; in assay [5], >4.01; in assay [6], “<=2”; in [7] it was 2.01. The “fold change (FC)” value in [8] is reported as 1.201; in assay [9], 1.01; in assay [10], 1.201; in assay [11], >4; in assay [12] it was “>=1.001”; in [13] it was 1.401. Moreover, the “fold change (FC)” value in [14] is >1.61; in assay [15], 2.51; in assay [16], 1.51. Moreover, the Kd in assay [4] is < 100 nM. Besides, in assay [17], the 50% inhibitory concentration (IC50) was < 100 nM.

With `Cn1cnnc1C(F)(F)[C@](C)(F)c1cccc(N2Cc3c(cc(CN4CC[C@@H](C#N)C4)cc3C(F)(F)F)C2=O)c1`, the “fold change (FC)” value in assay [1] was “>=7.5”; in assay [2], 1.401; in assay [3], 1.51; in assay [5] it was >4.01; in assay [6], 3.01; in assay [7], 2.01. The “fold change (FC)” value in [8] was 1.201; in assay [9], 1.01; in [10], 1.201; in [11], >4; in assay [12], “>=1.001”; in [13] it was 1.401. Also, the “fold change (FC)” value is >1.61 in assay [14], “<=2.5” in assay [15] and “<=1.5” in assay [16]. Also, the IC50 in assay [17] is < 100 nM.

As to `Cn1cnnc1C(F)(F)C(C)(F)c1cccc(N2Cc3c(cc(CN4CC[C@@H](F)C4)cc3C(F)(F)F)C2=O)c1` (single isomer, unassigned), the “fold change (FC)” value in assay [1] is recorded as “>=7.5”; in assay [2], 1.401; in [3], 1.51; in [5] it was >4.01; in [6] it was “<=2”; in assay [7], 2.01. The “fold change (FC)” value in assay [8] is 1.201; in assay [9] it was 1.31; in assay [10], 1.201; in [11], >4; in assay [12] it was “>=1.001”; in assay [13], 1.401. Further, the “fold change (FC)” value in [14] is recorded as >1.61; in assay [15], >3.01; in assay [16], 1.51. Further, the Kd in [4] was < 100 nM. Besides, in assay [17], the concentration for half-maximal inhibition (IC50) was < 100 nM.

Turning to `C[C@H](Cc1nncn1C)c1cccc(N2Cc3c(cc(CN4CC(O)C4)cc3C(F)(F)F)C2=O)c1`, the “fold change (FC)” value in assay [1] is listed as “>=7.5”; in assay [2], “<=1.2”; in assay [3] it was “<=1.5”; in [5], >4.01; in assay [6] it was “<=2”; in assay [7] it was 2.01. Further, the “fold change (FC)” value in assay [8] is “<=1.2”; in assay [9], 1.01; in [10] it was “<=1.2”; in assay [11] it was “<=2”; in assay [12] it was “>=1.001”; in assay [13], 1.201. The “fold change (FC)” value was >1.61 in [14], >3.01 in assay [15] and “<=1.5” in [16]. The Kd in [4] was < 100 nM. Further, the half-inhibitory concentration (IC50) in assay [17] was < 100 nM.

As to `C[C@H](Cc1nncn1C)c1cccc(N2Cc3c(cc(CN4CC[C@](C)(O)C4)cc3C(F)(F)F)C2=O)c1`, the “fold change (FC)” value is listed as 5 in [1]; 1.401 in [2]; 2.01 in assay [3]; >4.01 in assay [5]; “<=2” in [6]; 2.01 in [7]. Besides, the “fold change (FC)” value is 1.201 in assay [8]; 1.01 in [9]; 1.201 in [10]; >4 in [11]; “>=1.001” in assay [12]; 1.401 in assay [13]. In addition, the “fold change (FC)” value in [14] is >1.61; in [15], 2.51; in assay [16] it was “<=1.5”. Besides, the Kd in assay [4] was < 100 nM. Further, in assay [17], the IC50 is < 100 nM.

As to `C[C@H](Sc1nncn1C)c1cccc(NC(=O)c2cc(C(=O)N3CC[C@H](O)C3)ccn2)c1`, the “fold change (FC)” value in assay [1] is given as “<=1”; in [2] it was 1.401; in assay [3] it was 2.01; in assay [5], 2.51; in [6], >4; in [7] it was “<=1”. The “fold change (FC)” value in [8] is reported as 1.201; in [9], 1.01; in [10] it was 1.401; in assay [11] it was >4; in assay [12] it was 0.801; in assay [13], >1.601. The “fold change (FC)” value is “<=1.4” in assay [14], “<=2.5” in assay [15] and 1.51 in assay [16].

Take `C[C@H](Cc1nncn1C)c1cccc(N2Cc3c(ccnc3C3CC3)C2=O)c1`: the “fold change (FC)” value in assay [1] was found to be 1.01; in [2], 1.201; in assay [3], 1.51; in assay [5] it was 2.51; in [6] it was 2.01; in [7], 2.01. The “fold change (FC)” value is “<=1.2” in assay [8]; 1.01 in assay [9]; “<=1.2” in [10]; 2.01 in assay [11]; “>=1.001” in assay [12]; 1.401 in assay [13]. The “fold change (FC)” value in assay [14] is recorded as “<=1.4”; in [15] it was “<=2.5”; in [16] it was “<=1.5”.

Take `C[C@H](Cc1nncn1C)c1cccc(NC(=O)c2cccc(CCO)n2)c1`: the “fold change (FC)” value in assay [1] is 1.01; in assay [2] it was “<=1.2”; in assay [3], “<=1.5”; in assay [5], 2.51; in [6] it was “<=2”; in [7], 1.01. Moreover, the “fold change (FC)” value in assay [8] was “<=1.2”; in assay [9] it was 1.01; in [10], “<=1.2”; in assay [11] it was “<=2”; in [12], 0.801; in [13] it was 1.201. Moreover, the “fold change (FC)” value in assay [14] is reported as “<=1.4”; in [15], “<=2.5”; in assay [16], “<=1.5”.
